Source: patent US20210299134A1, “TREATMENT OF B CELL MALIGNANCIES” (MEI Pharma, Inc., priority 2018, published 2021)
Marks after values point to notes of the source that are not given here.

Tests used:
[1] = tested on: patients with FL or CLL/SLL; assay: Phase 1b study: adverse events of special interest (AESI) on IS or CS; type: in vivo, human
From the text: In some instances, severe cases of enterocolitis, rash, and transaminitis have been reported in a Phase 1b clinical study of Compound A35 in patients with B-cell malignancies. In some instances, the onset of severe immune-related toxicities were reported after a period of CS dosing greater than 2 cycles. A lymphocytic infiltrate was reported in biopsies obtained from 1 patient with colitis and 1 patient with severe skin rash enrolled in the study. Furthermore, corticosteroid therapy has been reported as effective treatment approach in patients who developed diarrhea and rash in the study.
Following reports of delayed onset of cases of enterocolitis and rash in patients with Compound A35 initially administered once a day on a continuous dosing schedule (CS) in a 28-day cycle, an alternate dosing regimen using an intermittent dosing schedule (IS) was evaluated. The hypothesis was that an IS of PI3K5 inhibitors including Compound A35 could reduce the incidence or lower the severity of immune mediated adverse events (irAEs) by allowing recovery of TREGs during treatment-free intervals. Furthermore, it was hypothesized that the IS, by delivering a lower dose-intensity treatment approach, could be used to re-treat patients who have experienced delayed irAEs on the CS or IS and had recovered following treatment interruption and a short course of corticosteroids.
(§1) An intermittent dosing schedule on days 1-7 of a 28-day cycle was then evaluated after 2 cycles of daily dosing, or ≥3 cycles of daily dosing to reduce the risk of immune-related adverse events. For this analysis the intermittent schedule (IS) group is defined as patients who received Compound A35 alone or with rituximab daily for 2 cycles then switched to an intermittent schedule of 1 week per cycle, and the continuous schedule (CS) group is defined as patients who never switched to intermittent dosing or switched to intermittent dosing in cycle 4 or later cycles. Toxicity on CS is managed by a switch to IS.
The IS was developed to mitigate the risk of delayed toxicities observed with PI3K inhibitors and believed to be associated with on-target effect PI3K inhibition on immune cells.

[2] = tested on: patients with relapsed B-cell malignancies; assay: Phase 1b study: patient dispositions on intermittent or continuous schedule; type: in vivo, human; details: Compound A35 alone arm
Protocol: as §1
In an ongoing Phase 1b study, Compound A35 was administered as a single agent in patients with relapsed B-cell malignancies. Patients have been enrolled in 3 cohorts: • Group A: 31 patients enrolled in a dose escalation phase of the study, with Compound A35 administered as a single agent at a dose of 60, 120, and 180 mg/day. In Group A, all patients began receiving Compound A35 on a CS. Approximately 1.5 years after the start of the study, 17 ongoing patients were switched to the IS to prevent delayed immune-mediated toxicities after various duration of exposure on the CS.
• Group B: 21 patients enrolled in an ongoing expansion cohort of up to 30 patients administered Compound A35 as a single agent at 60 mg/day on the CS for 2 cycles then switching to the IS in Cycle 3 (N=17) or later cycles (N=4).

Plasma half-life = type: in vivo; details: human, oral, healthy volunteers and patients with B-cell malignancies
From the text: It is known that administration of an oral drug over a period equivalent to approximately 7 half-lives is necessary to achieve steady state plasma concentrations required for optimal antitumor activity, and that a period of approximately 7 half-lives is needed to clear a drug from the plasma after treatment interruption. TREGs repopulation occurs approximately 14 days after the administration of a single dose of the anti-CD25 immunotoxin denileukin diftitox (ONTAK®), a drug known to suppress TREGs. Therefore, it was hypothesized that administration of Compound A35 at 60 mg/day for 7 consecutive days will result in steady-state plasma concentrations sufficient to inhibit PI3K5 in target malignant B-cells and that 21 days without treatment will be sufficient to repopulate TREGs, which comprises 7 days to clear Compound A35 from the plasma (˜7 half-lives) and 14 days for reconstitution of TREGs after Compound A35 is cleared from the plasma.

With `CN1CCC(c2ccccc2CC(C)(C)Nc2nc(N3CCOCC3)nc(-n3c(C(F)F)nc4ccccc43)n2)CC1` [Compound A35] the “AESI ALT/AST increased, All Grades, patients (%)” value ([1]; CLL/SLL, All (N = 17)) was 2 (11.8%), the “AESI ALT/AST increased, Related Grade 3, patients (%)” value ([1]; CLL/SLL, All (N = 17)) was 0% and the “AESI Diarrhea/colitis, All Grades, patients (%)” value ([1]; CLL/SLL, All (N = 17)) was 9 (52.9%). The “AESI Diarrhea/colitis, Related Grade 3, patients (%)” value ([1]; CLL/SLL, All (N = 17)) was 4 (23.5%), the “AESI Mucositis, All Grades, patients (%)” value ([1]; CLL/SLL, All (N = 17)) was 1 (5.9%) and the “AESI Mucositis, Related Grade 3, patients (%)” value ([1]; CLL/SLL, All (N = 17)) was 0%. For the same molecule, the “AESI Pneumonia/Pneumonitis, All Grades, patients (%)” value ([1]; CLL/SLL, All (N = 17)) was 3 (17.6%), the “AESI Pneumonia/Pneumonitis, Related Grade 3, patients (%)” value ([1]; CLL/SLL, All (N = 17)) was 3 (17.6%) and the “AESI Rash, all types, All Grades, patients (%)” value ([1]; CLL/SLL, All (N = 17)) was 6 (35.3%). The “AESI Rash, all types, Related Grade 3, patients (%)” value ([1]; CLL/SLL, All (N = 17)) was 0%, the “AESI ALT/AST increased, All Grades, patients (%)” value ([1]; CLL/SLL, CS Group (N = 9)) was 2 (22.2%) and the “AESI ALT/AST increased, Related Grade 3, patients (%)” value ([1]; CLL/SLL, CS Group (N = 9)) was 0%. For the same molecule, the “AESI Diarrhea/colitis, All Grades, patients (%)” value ([1]; CLL/SLL, CS Group (N = 9)) was 6 (66.7%), the “AESI Diarrhea/colitis, Related Grade 3, patients (%)” value ([1]; CLL/SLL, CS Group (N = 9)) was 3 (33.3%) and the “AESI Mucositis, All Grades, patients (%)” value ([1]; CLL/SLL, CS Group (N = 9)) was 1 (11.1%). For the same molecule, the “AESI Mucositis, Related Grade 3, patients (%)” value ([1]; CLL/SLL, CS Group (N = 9)) was 0%, the “AESI Pneumonia/Pneumonitis, All Grades, patients (%)” value ([1]; CLL/SLL, CS Group (N = 9)) was 3 (33.3%) and the “AESI Pneumonia/Pneumonitis, Related Grade 3, patients (%)” value ([1]; CLL/SLL, CS Group (N = 9)) was 3 (33.3%). For the same molecule, the “AESI Rash, all types, All Grades, patients (%)” value ([1]; CLL/SLL, CS Group (N = 9)) was 4 (44.0%), the “AESI Rash, all types, Related Grade 3, patients (%)” value ([1]; CLL/SLL, CS Group (N = 9)) was 0% and the “AESI ALT/AST increased, All Grades, patients (%)” value ([1]; CLL/SLL, IS Group (N = 8)) was 0%. For the same molecule, the “AESI ALT/AST increased, Related Grade 3, patients (%)” value ([1]; CLL/SLL, IS Group (N = 8)) was 0%, the “AESI Diarrhea/colitis, All Grades, patients (%)” value ([1]; CLL/SLL, IS Group (N = 8)) was 3 (37.5%) and the “AESI Diarrhea/colitis, Related Grade 3, patients (%)” value ([1]; CLL/SLL, IS Group (N = 8)) was 1 (12.5%). For the same molecule, the “AESI Mucositis, All Grades, patients (%)” value ([1]; CLL/SLL, IS Group (N = 8)) was 0%, the “AESI Mucositis, Related Grade 3, patients (%)” value ([1]; CLL/SLL, IS Group (N = 8)) was 0% and the “AESI Pneumonia/Pneumonitis, All Grades, patients (%)” value ([1]; CLL/SLL, IS Group (N = 8)) was 0%. For the same molecule, the “AESI Pneumonia/Pneumonitis, Related Grade 3, patients (%)” value ([1]; CLL/SLL, IS Group (N = 8)) was 0%, the “AESI Rash, all types, All Grades, patients (%)” value ([1]; CLL/SLL, IS Group (N = 8)) was 2 (25.0%) and the “AESI Rash, all types, Related Grade 3, patients (%)” value ([1]; CLL/SLL, IS Group (N = 8)) was 0%. For the same molecule, the “AESI ALT/AST increased, All Grades, patients (%)” value ([1]; FL, All (N = 40)) was 9 (22.5%), the “AESI ALT/AST increased, Related Grade 3, patients (%)” value ([1]; FL, All (N = 40)) was 3 (7.5%) and the “AESI Diarrhea/colitis, All Grades, patients (%)” value ([1]; FL, All (N = 40)) was 17 (42.5%). The “AESI Diarrhea/colitis, Related Grade 3, patients (%)” value ([1]; FL, All (N = 40)) was 6 (15.0%), the “AESI Mucositis, All Grades, patients (%)” value ([1]; FL, All (N = 40)) was 6 (15.0%) and the “AESI Mucositis, Related Grade 3, patients (%)” value ([1]; FL, All (N = 40)) was 1 (2.5%). For the same molecule, the “AESI Pneumonia/Pneumonitis, All Grades, patients (%)” value ([1]; FL, All (N = 40)) was 2 (5.0%), the “AESI Pneumonia/Pneumonitis, Related Grade 3, patients (%)” value ([1]; FL, All (N = 40)) was 2 (5.0%) and the “AESI Rash, all types, All Grades, patients (%)” value ([1]; FL, All (N = 40)) was 12 (30.0%). The “AESI Rash, all types, Related Grade 3, patients (%)” value ([1]; FL, All (N = 40)) was 4 (10.0%), the “AESI ALT/AST increased, All Grades, patients (%)” value ([1]; FL, CS Group (N = 25)) was 6 (24.0%) and the “AESI ALT/AST increased, Related Grade 3, patients (%)” value ([1]; FL, CS Group (N = 25)) was 3 (12.0%). For the same molecule, the “AESI Diarrhea/colitis, All Grades, patients (%)” value ([1]; FL, CS Group (N = 25)) was 10 (40.0%), the “AESI Diarrhea/colitis, Related Grade 3, patients (%)” value ([1]; FL, CS Group (N = 25)) was 5 (20.0%) and the “AESI Mucositis, All Grades, patients (%)” value ([1]; FL, CS Group (N = 25)) was 6 (24.0%). For the same molecule, the “AESI Mucositis, Related Grade 3, patients (%)” value ([1]; FL, CS Group (N = 25)) was 1 (4.0%), the “AESI Pneumonia/Pneumonitis, All Grades, patients (%)” value ([1]; FL, CS Group (N = 25)) was 2 (8.0%) and the “AESI Pneumonia/Pneumonitis, Related Grade 3, patients (%)” value ([1]; FL, CS Group (N = 25)) was 2 (8.0%). For the same molecule, the “AESI Rash, all types, All Grades, patients (%)” value ([1]; FL, CS Group (N = 25)) was 11 (44.0%), the “AESI Rash, all types, Related Grade 3, patients (%)” value ([1]; FL, CS Group (N = 25)) was 4 (16.0%) and the “AESI ALT/AST increased, All Grades, patients (%)” value ([1]; FL, IS Group (N = 15)) was 3 (20.0%). The “AESI ALT/AST increased, Related Grade 3, patients (%)” value ([1]; FL, IS Group (N = 15)) was 0%, the “AESI Diarrhea/colitis, Related Grade 3, patients (%)” value ([1]; FL, IS Group (N = 15)) was 1 (6.7%) and the “AESI Mucositis, All Grades, patients (%)” value ([1]; FL, IS Group (N = 15)) was 0%. For the same molecule, the “AESI Mucositis, Related Grade 3, patients (%)” value ([1]; FL, IS Group (N = 15)) was 0%, the “AESI Pneumonia/Pneumonitis, All Grades, patients (%)” value ([1]; FL, IS Group (N = 15)) was 0% and the “AESI Pneumonia/Pneumonitis, Related Grade 3, patients (%)” value ([1]; FL, IS Group (N = 15)) was 0%. The “AESI Rash, all types, All Grades, patients (%)” value ([1]; FL, IS Group (N = 15)) was 1 (6.7%), the “AESI Rash, all types, Related Grade 3, patients (%)” value ([1]; FL, IS Group (N = 15)) was 0% and the “AESI Diarrhea/colitis, All Grades, patients (%)” value ([1]; FL, IS Group (N = 15), excluded 1 subject with diarrhea after POD and 1 with diarrhea lasting one day with no dose change) was 7 (46.7%)*. For the same molecule, the “immune-mediated toxicities with IS administration” value ([1]; IS versus CS) was “reduces the incidence of or delayed onset of immune-mediated toxicities”, the “period of CS dosing before onset of severe immune-related toxicities” value ([1]; Phase 1b study, patients with B-cell malignancies, CS dosing) was “greater than 2 cycles” and the “Discontinued therapy: Adverse event” value ([2]; CS Group (N = 25)) was “(16%)”. The “Discontinued therapy: Adverse event, number of patients” value ([2]; CS Group (N = 25)) was 4, the “Discontinued therapy: Progressive disease” value ([2]; CS Group (N = 25)) was “(20%)” and the “Discontinued therapy: Progressive disease, number of patients” value ([2]; CS Group (N = 25)) was 5. For the same molecule, the “Discontinued therapy: Adverse event, number of patients” value ([2]; IS Group (N = 15)) was 0, the “Discontinued therapy: Progressive disease” value ([2]; IS Group (N = 15)) was “(20%)” and the “Discontinued therapy: Progressive disease, number of patients” value ([2]; IS Group (N = 15)) was 3. It also gave a half-life (Plasma half-life) of roughly 28 h.
